Test results as given in US10894036B2, “Use of marizomib for the treatment of central nervous system (CNS) cancers” (Celgene International II Sàrl, priority 2016, dated 2021).
“And” between values parts separate entries of the source, which are not always exact repeats. Equal values may be shown once. “Also recorded” adds a separate entry of the source.

How the values were obtained:
[1] = Quantitative whole body autoradiography: distribution to brain; format: in vivo, rat; conditions: rats
Description: The definition of marizomib is understood to include marizomib as well as pharmaceutically acceptable salts, prodrugs, solvates, hydrates, tautomers, or isomers thereof. In specific embodiments, the term marizomib refers to Compound 1 or a pharmaceutically acceptable salt thereof. Without wishing to be bound by theory, marizomib is a proteasome inhibitor with unique features compared to other proteasome inhibitors. For example, marizomib inhibits all three catalytic activities of the proteasome and is capable of crossing the blood brain barrier (BBB). […] Radiolabeled marizomib has shown 30% CNS biodistribution compared with blood levels in rats. Marizomib can elicit a significant anti-tumor effect in a rodent model of malignant glioma.

20S Proteasome = assay: 20S proteasome activity (% inhibition) in rodent brain; format: in vivo, mouse
CNS-MM = assay: Compassionate use of marizomib in CNS-myeloma patients: response (IMWG, CSF, MRI, neurological); format: in vivo, human
Method: This example sets forth seven case studies in which CNS-MM (i.e., multiple myeloma with CNS involvement) was treated using marizomib alone or in combination with other agents.
Daratumumab (16 mg/kg weekly×2 months) was added with continued marizomib.
Marizomib was given on compassionate use protocol (see above) at 0.7 mg/m^2 as a 10 min IV infusion on days 1, 8 and 15 along with dexamethasone on a 28 day Cycle.
In July 2016, marizomib was given on compassionate use protocol at 0.8 mg/m^2 as a 10 min IV infusion on days 1, 8 and 15 along with dexamethasone on a 28 day Cycle. Pomalidomide was also given at 4 mg daily on days 1 through days 21.
In August 2016, marizomib was given on compassionate use protocol at 0.7 mg/m^2 as a 10 min IV infusion on days 1, 8 and 15 along with dexamethasone on a 28 day Cycle. Pomalidomide was dosed at 4 mg daily on days 1 through days 21.
The patient was treated with marizomib, oral pomalidomide, and oral dexamethasone.
All patients had systemic disease with CNS involvement.

[2] = tumor-bearing mouse, IV, individual mice 1 and 2
[3] = tumor-bearing mouse, IV, individual mice 1 and 2, NE = No Effect, listed as MRZ
[4] = tumor-bearing mouse, IV, individual mice 1 and 2, listed as MRZ
[5] = 7 CNS-MM patients, listed as Marizomib

Structure (SMILES): C[C@@]12OC(=O)[C@]1([C@@H](O)[C@@H]1C=CCCC1)NC(=O)[C@@H]2CCCl [marizomib]
- distribution to brain relative to plasma Cmax ([1]; quantitative whole body autoradiography): ~30%
- CNS biodistribution compared with blood levels ([1]; radiolabeled marizomib): 30%
- proteasome activity in brain (20S Proteasome; mouse): inhibits proteasome activity
- CT-L activity in brain (20S Proteasome; tumor-bearing mouse): inhibits CT-L activity in brain
- 20S Proteasome Activity (% Inhibition), Blood, Peak (2 hr) (20S Proteasome; [2]): 99%
- 20S Proteasome Activity (% Inhibition), Blood, Trough (20S Proteasome; [2]): 87%
- 20S Proteasome Activity (% Inhibition), Brain, Peak (2 hr) (20S Proteasome; [3]): 94% and 98%
- 20S Proteasome Activity (% Inhibition), Brain, Trough (20S Proteasome; [3]): 52% and 41%
- 20S Proteasome Activity (% Inhibition), Tumor, Peak (2 hr) (20S Proteasome; [4]): 56% and 77%
- 20S Proteasome Activity (% Inhibition), Tumor, Trough (20S Proteasome; [4]): 15% and 0%
- complete responses (CNS-MM; 7 CNS-MM patients): two
- partial responses (CNS-MM; 7 CNS-MM patients): 3
- patients with at least a partial response (overall response rate) (CNS-MM; 7 CNS-MM patients): five of seven
- patients with survival greater than four months (CNS-MM; 7 CNS-MM patients): four of seven
- patients with at least a partial response (overall response rate) (CNS-MM; 7 CNS-MM patients, listed as MRZ): Five of 7
- complete responses (CNS-MM; [5]): 2
- patients with at least a partial response (overall response rate) (CNS-MM; [5]): 5/7
- Neurological Assessment (CNS-MM; Case 1): Reduction of CSF plasma cells
- reduction of CSF plasmacytosis (CNS-MM; Case 1): 99%
- Reduction of CSF plasma cells (CNS-MM; Case 1, C2D1): (90% C2D1)
- Neurological Assessment (CNS-MM; Case 2): sustained complete resolution of CSF plasmacytosis; also recorded: No CSF plasma cells detected; also recorded: Stable remission by MRI
- Response (CNS-MM; Case 2, ongoing C13): CR by serology; stable remission
- Neurological Assessment (CNS-MM; Case 3): undetectable CSF plasmacytosis since C3D1; also recorded: No evidence of FDG-avid lesions
- IMWG Assessment Systemic Disease (CNS-MM; Case 3: MRZ 0.8 mg/m^2 + POM 4 mg + DEX 20 mg): ongoing complete response
- Response (CNS-MM; Case 3, ongoing C8): CR - no evidence of active disease:
- Neurological Assessment (CNS-MM; Case 4): Transient improvement through
- Response (CNS-MM; Case 4, discontinued on C3): Best response PR with PD after C3
- Response (CNS-MM; Case 5, discontinued C1): Pleural effusion following C1D1
- Neurological Assessment (CNS-MM; Case 6): resolution of CNS disease; also recorded: Complete resolution of central
- reduction in systemic paraprotein (CNS-MM; Case 6): 77%
- Paraprotein after decrease (CNS-MM; Case 6, from 18 g/L): 18 to 4 g/L
- IMWG Assessment Systemic Disease (CNS-MM; Case 7: MRZ 0.7 mg/m^2 + LEN 25 mg + DEX 10 mg): PD (increase in tumor of ≥25% from lowest response value)
- IMWG Assessment Systemic Disease (CNS-MM; Case 7: MRZ 0.7 mg/m^2 + LEN 25 mg + DEX 10 mg, listed as MRZ): progressive disease
